Data as given in US20200087248A1, “Fluoroallylamine Derivative And Use Thereof” (SICHUAN KELUN-BIOTECH BIOPHARMACEUTICAL CO., LTD., priority 2017, published 2020).
Counter-ions that a name gives are not always drawn.

What was measured:
hERG = biological target: T1, hERG (Homo sapiens, UniProt Q12809); test: hERG fluorescence polarization inhibition experiment; conditions: hERG cell membrane, 25° C. 2 hours, read-out: hERG (IC50 range, competitive binding vs tracer)
T1 construct: purchased ThermoFisher; host or cells: hERG cell membrane supplied with the kit
Method: hERG (Ether-a-go-go-related Gene Potassium Channel) Inhibition Experiment
Reagent: Predictor™ hERG Fluorescence Polarization Assay Kit, Manufacturer: ThermoFisher
The above test kit was used to evaluate the potential of the compound for inducing heart QT prolongation. According to the method as indicated in the specification of the test kit, the test compound, the positive control (E4031) and negative control (Experimental buffer solution) in the kit were added to a microwell plate containing hERG cell membrane, and then a tracer having high affinity to hERG was added. The microwell plate was then incubated at 25° C. for 2 hours, a BMG PHAREStar polyfunctional enzyme marker was used to test the variations in the fluorescent polarization value. By calculating the percent inhibition rates (%) at different concentrations, the range of the half inhibition concentration (IC50) was determined:
Percent inhibition rate (%)=(1-(mP of the test compound-mP of 30 μM E4031)/(mP of experimental buffer solution-mP of 30 μM E4031))*100.

[1] = biological target: T2, VAP-1 in abdominal fat of mice (Mus musculus, UniProt O70423); test: Inhibition of the enzymatic activity of VAP-1 ex-vivo, abdominal fat after oral dosing; assay type: in vivo, BALBc mice; conditions: abdominal fat collected after six hours; for inhibition at 0.5 mg/kg / inhibition at 2 mg/kg: mouse, read-out: Inhibition rate (%) against the enzymatic activity of VAP-1 (ex-vivo); for inhibition at 0.5 mg/kg: 0.5 mg/kg oral; for Inhibition rate (%) against the enzymatic activity of VAP-1 (ex-vivo) / inhibition at 2 mg/kg: 2 mg/kg oral
T2 construct: abdominal fat was collected and homogenized; from tissue; host or cells: abdominal fat of BALBc mice (homogenate supernatant)
T2 sequence (O70423 1-765): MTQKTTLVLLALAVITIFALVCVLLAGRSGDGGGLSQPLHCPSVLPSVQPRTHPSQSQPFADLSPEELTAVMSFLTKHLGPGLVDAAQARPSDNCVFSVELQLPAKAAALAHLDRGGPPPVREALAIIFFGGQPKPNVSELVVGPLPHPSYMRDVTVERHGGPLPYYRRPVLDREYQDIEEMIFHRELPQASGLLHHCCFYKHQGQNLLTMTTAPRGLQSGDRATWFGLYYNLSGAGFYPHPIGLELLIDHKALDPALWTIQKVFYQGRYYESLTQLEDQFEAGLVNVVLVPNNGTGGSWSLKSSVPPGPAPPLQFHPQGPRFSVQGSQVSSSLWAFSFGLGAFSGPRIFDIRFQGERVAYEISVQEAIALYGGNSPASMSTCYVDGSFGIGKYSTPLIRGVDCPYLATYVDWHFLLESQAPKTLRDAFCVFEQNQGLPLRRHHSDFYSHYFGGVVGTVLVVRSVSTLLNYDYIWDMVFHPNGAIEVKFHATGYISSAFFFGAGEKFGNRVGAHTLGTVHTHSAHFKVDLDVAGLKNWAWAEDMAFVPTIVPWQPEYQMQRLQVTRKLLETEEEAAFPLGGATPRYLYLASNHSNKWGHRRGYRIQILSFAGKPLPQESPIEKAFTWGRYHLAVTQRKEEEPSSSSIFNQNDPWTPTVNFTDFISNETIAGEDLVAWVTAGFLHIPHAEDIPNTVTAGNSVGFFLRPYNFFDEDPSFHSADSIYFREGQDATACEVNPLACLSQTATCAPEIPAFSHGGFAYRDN
Method: Inhibition Experiment Against the Enzymatic Activity (ex-vivo)
Tissue homogenate buffer solution (20 mM HEPES, pH 7.2, 1 mM EDTA, 250 mM sucrose, PMSF 0.2 mM)
(§1) Reaction buffer solution: 50 mM PBS, pH 7.4
(§2) Test kit: Amplex® Red Monoamine Oxidase Assay, Manufacturer: ThermoFisher
BALBc mice were administrated orally with different doses of the test compound, and the vehicle group was used as the control group. After six hours, abdominal fat was collected and homogenized at 1:20 (w/v) with the pre-cooled homogenate buffer solution, and thereafter, the homogenate was centrifuged at 10,000 g and 4° C. or 10 minutes, the supernatant was collected and stored at -80° C. for further use.
A test sample was diluted with the reaction buffer solution and successively added with the inhibition solution A: 1 μM Clorgyline+1 μM pargylin, to inhibit the activities of MAO-A and MAO-B, and the inhibition solution B: 1 μM Clorgyline+1 μM Pargylin+1 μM Mofegiline as the blank control, and after being incubated at room temperature for 20 min, 500 μM benzylamine hydrochloride, 1 U/mL HRP and 200 μM Amplex Red reagent were added to start the reaction. By referring to the method in “Experiment of inhibiting the enzymatic activity of VAP-1”, relative activity of each dose group was calculated, wherein the ratio of the fluorescent signal to reaction time in the linear range is the reaction rate, and the vehicle group is the positive control, thereby to study the inhibition of the compound against the enzymatic activity of VAP-1 in abdominal fat of mice.

VAP-1 = biological target: T3, VAP-1 (Homo sapiens, UniProt Q16853); test: Inhibition of the enzymatic activity of VAP-1 in vitro (Amplex Red); assay type: biochemical; conditions: VAP-1 protein about 20 nM, 10 min pre-incubation, benzylamine substrate; read-out: IC50, inhibition against the enzymatic activity of VAP-1
T3 construct: purchased R&D Systems
T3 sequence (Q16853 1-763): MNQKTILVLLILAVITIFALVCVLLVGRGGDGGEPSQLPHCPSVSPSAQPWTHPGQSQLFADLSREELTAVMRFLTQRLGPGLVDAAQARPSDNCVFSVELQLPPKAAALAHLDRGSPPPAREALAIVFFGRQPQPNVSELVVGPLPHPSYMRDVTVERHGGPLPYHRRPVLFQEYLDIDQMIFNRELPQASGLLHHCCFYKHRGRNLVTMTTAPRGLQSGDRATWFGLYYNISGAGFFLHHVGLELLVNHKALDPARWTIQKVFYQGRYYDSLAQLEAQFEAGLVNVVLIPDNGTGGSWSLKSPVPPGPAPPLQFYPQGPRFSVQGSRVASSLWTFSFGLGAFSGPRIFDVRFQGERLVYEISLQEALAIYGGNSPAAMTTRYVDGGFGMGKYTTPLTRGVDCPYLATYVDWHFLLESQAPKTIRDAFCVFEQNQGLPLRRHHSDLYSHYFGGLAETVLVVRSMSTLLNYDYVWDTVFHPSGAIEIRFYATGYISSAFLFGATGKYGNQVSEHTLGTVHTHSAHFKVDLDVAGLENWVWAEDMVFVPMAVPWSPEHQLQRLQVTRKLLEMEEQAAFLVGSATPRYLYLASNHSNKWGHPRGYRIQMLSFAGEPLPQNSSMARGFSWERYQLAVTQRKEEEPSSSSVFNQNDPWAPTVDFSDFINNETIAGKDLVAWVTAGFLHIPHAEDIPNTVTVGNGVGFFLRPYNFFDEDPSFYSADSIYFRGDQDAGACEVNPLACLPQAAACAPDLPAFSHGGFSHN
Method: Inhibition Experiment Against the Enzymatic Activity of VAP-1(Vascular Adhesion Protein 1) in vitro
as §2, §1
Enzyme: VAP-1, Manufacturer: R&D Systems
VAP-1 protein (about 20 nM) and different concentrations of the test compound were pre-incubated at room temperature for 10 minutes, followed by an addition of […] benzylamine hydrochloride, 1 U/mL HRP and 200 μM Amplex Red reagent according to the specification of the test kit to start the reaction. The reaction plate was placed in the enzyme marker, and in kinetic mode, fluorescence signals were measured at Ex/Em=540/590 nm. The relative inhibition activity of each concentration group was calculated, wherein the ratio (slope) of fluorescence signal to reaction time in the linear range is the reaction rate, the vehicle group (DMSO) is the negative control, and the reaction buffer solution group (without enzymes and the compounds) is the blank control. The half inhibition concentration (IC50) of the compound was calculated according to four-parameter model fitting curve.

T1 sequence (Q12809 whole entry): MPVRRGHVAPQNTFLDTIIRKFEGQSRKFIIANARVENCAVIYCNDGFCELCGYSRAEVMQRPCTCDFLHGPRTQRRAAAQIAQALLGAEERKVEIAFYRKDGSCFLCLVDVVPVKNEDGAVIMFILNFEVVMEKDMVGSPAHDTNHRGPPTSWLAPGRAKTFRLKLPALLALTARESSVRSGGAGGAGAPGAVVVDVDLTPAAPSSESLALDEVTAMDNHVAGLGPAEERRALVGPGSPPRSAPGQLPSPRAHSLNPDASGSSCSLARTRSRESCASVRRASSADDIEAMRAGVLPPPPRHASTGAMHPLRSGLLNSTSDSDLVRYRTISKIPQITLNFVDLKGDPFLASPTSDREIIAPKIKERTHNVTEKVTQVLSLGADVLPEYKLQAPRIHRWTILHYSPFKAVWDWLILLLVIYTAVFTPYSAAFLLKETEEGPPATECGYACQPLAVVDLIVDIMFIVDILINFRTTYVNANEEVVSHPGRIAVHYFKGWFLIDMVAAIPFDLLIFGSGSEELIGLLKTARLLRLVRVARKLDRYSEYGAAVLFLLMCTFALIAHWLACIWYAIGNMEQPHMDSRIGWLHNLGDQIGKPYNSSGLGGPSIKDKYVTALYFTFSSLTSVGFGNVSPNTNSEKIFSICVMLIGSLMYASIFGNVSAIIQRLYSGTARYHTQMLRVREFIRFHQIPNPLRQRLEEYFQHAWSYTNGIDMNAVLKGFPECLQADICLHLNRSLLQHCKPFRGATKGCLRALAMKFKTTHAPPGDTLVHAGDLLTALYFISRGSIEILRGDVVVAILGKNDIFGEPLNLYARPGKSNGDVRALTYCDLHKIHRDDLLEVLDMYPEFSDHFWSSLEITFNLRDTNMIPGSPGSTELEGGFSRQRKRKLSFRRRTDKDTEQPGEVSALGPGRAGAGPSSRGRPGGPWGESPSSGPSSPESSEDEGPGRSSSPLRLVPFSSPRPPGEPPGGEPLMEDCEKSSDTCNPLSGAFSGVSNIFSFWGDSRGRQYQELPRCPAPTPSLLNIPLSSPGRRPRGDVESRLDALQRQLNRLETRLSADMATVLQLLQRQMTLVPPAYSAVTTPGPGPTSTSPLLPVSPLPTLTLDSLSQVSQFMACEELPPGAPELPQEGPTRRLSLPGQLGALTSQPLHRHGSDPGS

Row | inhibition at 0.5 mg/kg [1] | IC50 (VAP-1) | Inhibition rate (%) against the enzymatic activity of VAP-1 (ex-vivo) [1] | inhibition at 2 mg/kg [1] | SMILES | IC50 (hERG)
1 | 93.3 ± 5.4% | 0.7 ± 0.1 nM |  |  | NC/C(=C/F)COc1ccc(C(=O)Nc2ccccc2)cc1 [TM1-Z, (Z)-N-phenyl-4-((2-aminomethyl-3-fluoroallyl)oxy)-benzamide trifluoroacetate] | > 10000 nM
2 |  | 5.8 ± 1 nM | completely inhibited | 112 ± 7.1% | NCC(=CF)COc1ccc2c(c1)CCNC2=O.O=C(O)C(F)(F)F [TM26, 6-((2-aminomethyl-3-fluoroallyl)oxy)-3,4-dihydroisoquinolin-1(2H)-one trifluoroacetate] | > 30000 nM
3 |  | 3.3 ± 0.2 nM | completely inhibited | 105 ± 9.1% | NCC(=CF)COc1ccc2c(c1)CN(Cc1ccc(Cl)cc1)C2=O [TM33, 5-((2-aminomethyl-3-fluoroallyl)oxy)-2-(4-chlorobenzyl)isoindolin-1-one] | 
4 | 93.2 ± 3.9% | 0.7 ± 0.1 nM |  |  | NC/C(=C/F)COc1ccc(-c2ncccn2)cc1 [TM39-Z, (Z)-2-(4-(2-pyrimidyl)phenoxymethyl)-3-fluoroallylamine trifluoroacetate] | > 10000 nM
5 |  | 4.8 ± 0.7 nM |  | 96.1 ± 17.4% | NCC(=CF)COc1ccc(-c2nc3ccc(Cl)cc3s2)cc1 [TM41, 2-(4-(6-chloro-benzothiazol-2-yl)phenoxymethyl)-3-fluoroallylamine trifluoroacetate] | 
6 |  | 1.6 ± 0.2 nM | completely inhibited | 106 ± 8.4% | NCC(=CF)COc1ccc(-c2nc3ccccc3[nH]2)cc1.O=C(O)C(F)(F)F [TM42, 2-(4-(1H-benzoimidazol-2-yl)phenoxymethyl)-3-fluoroallylamine trifluoroacetate] | > 10000 nM
7 |  | 3.4 ± 0.4 nM |  | 95.8 ± 6.2% | NCC(=CF)COc1ccc(C(=O)N2CCC(c3ccccc3)CC2)cc1 [TM44, (4-((2-aminomethyl-3-fluoroallyl)oxy)phenyl)-(4-phenylpiperidin-1-yl)methanone trifluoroacetate] | > 10000 nM
8 |  | 0.9 ± 0.1 nM |  | 91.9 ± 6.4% | NCC(=CF)COc1ccc(C(=O)N2CCc3ccccc3C2)cc1 [TM45, (4-((2-aminomethyl-3-fluoroallyl)oxy)phenyl)-(3,4-dihydroisoquinolin-2(1H)-yl)methanone trifluoroacetate] | > 10000 nM
9 |  | 0.5 nM |  | 99.7 ± 8.7% | NCC(=CF)COc1ccc(C(=O)Nc2ccc(F)cc2)cc1 [TM61, N-(4-fluorophenyl)-4-((2-aminomethyl-3-fluoroallyl)oxy)-benzamide trifluoroacetate] | > 10000 nM
10 |  | 4.4 ± 0.8 nM |  |  | NC/C(=C/F)COc1ccc(C(=O)N[C@H]2CCCc3ccccc32)cc1 [TM63-Z, (Z)-(S)-N-(1,2,3,4-tetrahydro-1-naphthyl)-4-((2-aminomethyl-3-fluoroallyl)oxy)-benzamide trifluoroacetate] | > 10000 nM
11 |  | 11.5 ± 1.3 nM |  |  | Cc1ccc(N(C)C(=O)c2ccc(OCC(=CF)CN)cc2)cc1 [TM67, N-methyl-N-p-methylphenyl-4-((2-aminomethyl-3-fluoroallyl)oxy)-benzamide trifluoroacetate] | > 30000 nM
12 |  | 0.2 nM |  |  | Cc1csc(-c2ccc(OCC(=CF)CN)cc2)n1 [TM70, 2-(4-(4-methylthiazolyl-2-phenoxy)methyl)-3-fluoroallylamine trifluoroacetate] | > 30000 nM
